pIC50: −log10 of the molar value. Converted amounts (≈) assume the structure as drawn.
Legend:
[1] = Drug concentration in DIO mouse adipose tissue at 10 mg/kg, po measured for 6 hrs relative to plasma concentration; format: ADME, organism-based; details: other tissue
[2] = molecular target: Cannabinoid receptor 2 (Homo sapiens, UniProt P34972); assay: Inverse agonist activity at human CB2 receptor expressed in CHO-K1 cell membrane in presence of CP55940 by GTP-gamma-S assay; format: functional, cell membranes
Chain of Cannabinoid receptor 2 (P34972 whole entry): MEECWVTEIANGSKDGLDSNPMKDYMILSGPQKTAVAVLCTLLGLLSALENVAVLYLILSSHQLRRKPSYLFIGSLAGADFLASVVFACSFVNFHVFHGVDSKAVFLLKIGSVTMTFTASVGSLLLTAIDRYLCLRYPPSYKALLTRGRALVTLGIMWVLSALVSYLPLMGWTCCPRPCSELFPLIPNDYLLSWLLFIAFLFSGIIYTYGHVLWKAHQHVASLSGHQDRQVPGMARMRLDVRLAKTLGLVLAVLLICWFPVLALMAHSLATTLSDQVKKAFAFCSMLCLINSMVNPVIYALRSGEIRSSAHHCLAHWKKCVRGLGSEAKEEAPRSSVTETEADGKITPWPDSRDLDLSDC

[3] = Drug concentration in DIO mouse adipose tissue at 10 mg/kg, po measured for 6 hrs; format: ADME, organism-based; details: read-out: Drug uptake
[4] = molecular target: T1, Cannabinoid receptor 1 (Homo sapiens, UniProt P21554); assay: Inverse agonist activity at human CB1 receptor expressed in CHO-K1 cell membrane by GTP-gamma-S assay; format: functional, cell membranes
T1 sequence (P21554 whole entry): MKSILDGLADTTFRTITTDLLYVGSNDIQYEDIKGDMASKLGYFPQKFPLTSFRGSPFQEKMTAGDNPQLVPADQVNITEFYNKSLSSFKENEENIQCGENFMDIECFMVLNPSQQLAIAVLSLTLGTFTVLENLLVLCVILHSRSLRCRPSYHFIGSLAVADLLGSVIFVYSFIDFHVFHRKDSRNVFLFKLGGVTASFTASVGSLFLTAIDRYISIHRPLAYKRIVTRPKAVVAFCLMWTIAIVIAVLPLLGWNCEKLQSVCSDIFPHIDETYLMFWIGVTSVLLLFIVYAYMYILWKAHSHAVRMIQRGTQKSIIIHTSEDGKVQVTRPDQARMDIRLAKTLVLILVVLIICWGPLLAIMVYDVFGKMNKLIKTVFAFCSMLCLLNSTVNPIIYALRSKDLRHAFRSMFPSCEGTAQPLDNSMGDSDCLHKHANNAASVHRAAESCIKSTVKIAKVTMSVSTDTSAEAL

[5] = Drug concentration in DIO mouse liver at 10 mg/kg, po measured for 6 hrs; format: ADME, organism-based; details: read-out: Drug uptake
[6] = molecular target: T1, Cannabinoid receptor 1; assay: Inverse agonist activity at human CB1 receptor expressed in African green monkey COS7 cells co-expressing G-protein in presence of CP55940 by IP3 assay; format: functional, cell membranes, Membrane
[7] = Lipophilicity, logD of compound by chromatographic analysis; format: physicochemical
[8] = Subchronic toxicity in DIO mouse assessed as reduction in body weight at 10 mg/kg, po measured after 7 days; format: organism-based; parameters: scale not given: the % may be the effect or the level left; details: in vivo, 168 h, time 7 day
[9] = Drug concentration in DIO mouse brain at 10 mg/kg, po measured for 24 hrs; format: ADME, organism-based; details: in vivo, po, 10 mg/kg, 24 h, BLD = below limit of detection
[10] = Drug concentration in DIO mouse brain at 10 mg/kg, po measured for 6 hrs; format: ADME, organism-based; details: read-out: Drug uptake
[11] = Drug concentration in DIO mouse plasma at 10 mg/kg, po measured for 6 hrs; format: ADME, organism-based
[12] = molecular target: T1, Cannabinoid receptor 1; assay: Antagonist activity at human CB1 receptor expressed in CHO-K1 cell membrane in presence of CP55940 by GTP-gamma-S assay; format: functional, cell membranes
[13] = Drug concentration in DIO mouse brain at 10 mg/kg, po measured for 6 hrs relative to plasma concentration; format: ADME, organism-based
[14] = molecular target: hERG (Homo sapiens, UniProt Q12809); assay: Inhibition of hERG at 10 uM by patch clamp assay relative to control; format: toxicity
Chain of hERG (Q12809 whole entry): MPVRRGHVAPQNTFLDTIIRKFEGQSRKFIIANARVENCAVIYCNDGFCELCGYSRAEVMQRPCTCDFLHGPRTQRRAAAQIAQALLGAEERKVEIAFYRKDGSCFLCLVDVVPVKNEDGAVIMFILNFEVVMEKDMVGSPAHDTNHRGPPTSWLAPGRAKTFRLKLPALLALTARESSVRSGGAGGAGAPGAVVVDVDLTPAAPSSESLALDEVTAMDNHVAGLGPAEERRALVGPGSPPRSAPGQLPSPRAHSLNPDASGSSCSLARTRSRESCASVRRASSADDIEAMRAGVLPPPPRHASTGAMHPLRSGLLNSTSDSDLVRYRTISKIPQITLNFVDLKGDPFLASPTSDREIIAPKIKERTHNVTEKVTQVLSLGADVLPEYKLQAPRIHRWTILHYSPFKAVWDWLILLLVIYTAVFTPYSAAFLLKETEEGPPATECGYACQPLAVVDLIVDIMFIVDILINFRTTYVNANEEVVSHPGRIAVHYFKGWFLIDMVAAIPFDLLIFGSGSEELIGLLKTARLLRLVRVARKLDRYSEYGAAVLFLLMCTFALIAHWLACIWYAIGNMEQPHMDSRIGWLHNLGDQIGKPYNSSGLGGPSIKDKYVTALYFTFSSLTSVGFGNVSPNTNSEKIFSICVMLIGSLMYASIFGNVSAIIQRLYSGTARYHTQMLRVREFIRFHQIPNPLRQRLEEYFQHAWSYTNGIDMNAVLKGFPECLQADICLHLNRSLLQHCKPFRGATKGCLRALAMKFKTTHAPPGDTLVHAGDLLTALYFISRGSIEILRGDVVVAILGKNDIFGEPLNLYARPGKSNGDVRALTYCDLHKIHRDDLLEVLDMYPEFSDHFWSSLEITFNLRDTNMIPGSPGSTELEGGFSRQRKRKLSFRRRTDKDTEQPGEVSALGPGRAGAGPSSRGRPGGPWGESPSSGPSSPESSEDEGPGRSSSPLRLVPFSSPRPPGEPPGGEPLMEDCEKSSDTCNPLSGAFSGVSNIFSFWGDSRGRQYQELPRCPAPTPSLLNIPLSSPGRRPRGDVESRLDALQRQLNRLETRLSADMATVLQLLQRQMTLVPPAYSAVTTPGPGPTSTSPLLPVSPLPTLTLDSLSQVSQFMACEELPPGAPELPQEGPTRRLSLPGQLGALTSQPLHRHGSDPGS

[15] = Clearance in rat hepatocytes assessed per million cells; format: ADME, cell-based, Hepatocyte
[16] = Drug concentration in DIO mouse adipose tissue assessed as fold increase at 10 mg/kg, po measured for 6 hrs relative to plasma concentration; format: ADME, organism-based; details: read-out: FC
[17] = In vivo inverse agonist activity at CB1 receptor in DIO mouse assessed as efficacy at 10 mg/kg, po measured after 6 hrs; format: functional
[18] = Volume of distribution at steady state in NMRI mouse at 2 mg/kg, iv; format: ADME, organism-based; details: in vivo, read-out: Vdss
[19] = Drug concentration in NMRI mouse brain relative to plasma concentration; format: ADME, tissue-based
[20] = Oral bioavailability in NMRI mouse at 10 mg/kg; format: ADME, organism-based; details: in vivo
[21] = Half life in NMRI mouse at 10 mg/kg, po; format: ADME, organism-based; details: in vivo
[22] = Efflux ratio of permeability in human Caco-2 cells; format: ADME, cell-based
[23] = Half life in NMRI mouse at 2 mg/kg, iv; format: ADME, organism-based; details: in vivo
[24] = Clearance in NMRI mouse at 2 mg/kg, iv; format: ADME, organism-based; details: in vivo
[25] = Protein binding in NMRI mouse plasma; format: ADME, cell-free; details: read-out: PPB
[26] = Tmax in NMRI mouse at 10 mg/kg, po; format: ADME, organism-based; details: in vivo
[27] = Cmax in NMRI mouse at 10 mg/kg, po; format: ADME, organism-based; parameters: dose 10 mg/kg, route po; details: in vivo
[28] = molecular target: Voltage-gated inwardly rectifying potassium channel KCNH2 (Homo sapiens, UniProt Q12809); assay: Inhibition of hERG by patch clamp assay; format: toxicity
Chain of Voltage-gated inwardly rectifying potassium channel KCNH2 (Q12809 whole entry): as above

[29] = Solubility of compound; format: physicochemical

## O=C(O)Cc1c(C(=O)N2CCC(c3ccc(F)cc3)CC2)nn(-c2ccccc2Cl)c1-c1ccc(Cl)cc1
[1]
  Drug uptake: 4%
[2]
  pIC50: < 5.00
[3]
  concentration at 6 h: 0.35 µM
[4]
  pIC50: 6.52
[5]
  concentration at 6 h: 9.5 µM
[6]
  pIC50: 7.74
[7]
  chromatographic logD: 2.7
[8]
  Activity: 0.2%
[9]
  Drug uptake: Bld
[10]
  concentration at 6 h: 0.07 µM
[11]
  concentration at 6 h: 9 µM
[12]
  pIC50: 7.74
[13]
  Drug uptake: 0.8%

## NC(=O)Cc1c(C(=O)N2CCC(O)(c3ccc(F)cn3)CC2)nn(-c2ccccc2Cl)c1-c1ccc(Cl)cc1
[14]
  inhibition at 10 µM: 38%
[4]
  pIC50: 8.74
[15]
  CLH: 18 µL/min/1e6 cells

## C[C@@H](NC(=O)c1nn(-c2ccccc2Cl)c(-c2ccc(Cl)cc2)c1Cc1nn[nH]n1)c1ccc(OC(F)(F)F)cc1
[2]
  pIC50: < 5.00
[3]
  concentration at 6 h: 4 µM
[4]
  pIC50: 7.68
[16]
  Kp at 6 h: 5
[5]
  concentration at 6 h: 35 µM
[6]
  pIC50: 8.32
[7]
  chromatographic logD: 2.9
[8]
  Activity: 11.8%
[10]
  concentration at 6 h: 0.16 µM
[11]
  concentration at 6 h: 12 µM
[17]
  Efficacy: 11%
[12]
  pIC50: 8.02
[13]
  Drug uptake: 1.3%

## O=C(O)Cc1c(C(=O)N2CCC(c3ccccc3F)CC2)nn(-c2ccccc2Cl)c1-c1ccc(Cl)cc1
[1]
  Drug uptake: 4%
[2]
  pIC50: < 5.00
[18]
  Vd: 0.6 L/kg
[19]
  Drug uptake: ~ 1%
[20]
  bioavailability: 88%
[3]
  concentration at 6 h: 1.5 µM
[4]
  pIC50: 7.29
[21]
  half-life: 2.2 h
[22]
  efflux ratio: 1.3
[23]
  half-life: 3.1 h
[24]
  clearance: 2.1 mL/min/kg
[5]
  concentration at 6 h: 10 µM
[6]
  pIC50: 8.54
[7]
  chromatographic logD: 2.6
[25]
  fraction unbound: < 0.01
[8]
  Activity: 6.4%
[9]
  Drug uptake: Bld
[10]
  concentration at 6 h: 0.22 µM
[11]
  concentration at 6 h: 38 µM
[26]
  Tmax: 0.5 h
[27]
  Cmax: 47 µM
[12]
  pIC50: 8.32
[13]
  Drug uptake: 0.6%

## NC(=O)Cc1c(C(=O)N2CCC(O)(c3ccc(F)cc3)CC2)nn(-c2ccccc2Cl)c1-c1ccc(Cl)cc1
[2]
  pIC50: 5.10
[14]
  inhibition at 10 µM: 93%
[4]
  pIC50: 9.35
[15]
  CLH: 8 µL/min/1e6 cells
[28]
  pIC50: 6.10
[6]
  pIC50: 8.74

## NC(=O)Cc1c(C(=O)NC2CCN(C(=O)C3CC3)CC2)nn(-c2ccccc2Cl)c1-c1ccc(Cl)cc1
[14]
  inhibition at 10 µM: 24%
[15]
  CLH: 18 µL/min/1e6 cells
[29]
  solubility: 81 µM (≈ 43.8 µg/mL)
